Measurements: patent publication US6936629B2, “Compounds and methods for the treatment or prevention of flavivirus infections” (ViroChem Pharma Inc., priority 2001, dated 2005)

Molecular target: HCV RNA-dependent RNA polymerase (NS5B protein) (Hepatitis C virus genotype 1b, UniProt P26663)
Assay: In vitro HCV RNA-dependent RNA polymerase assay (Assay 1, polyA/oligo dT, 32P-UTP incorporation)
Assay type: biochemical
Details: purified recombinant HCV NS5B, homopolymeric template/primer polyA/oligo dT; read-out: RNA pol Assay1 IC50
Procedure: Compounds were evaluated using an in vitro polymerase assay containing purified recombinant HCV RNA-dependent RNA polymerase (NS5B protein). HCV NS5B was expressed in insect cells using a recombinant baculovirus as vector. The experimental procedures used for the cloning, expression and purification of the HCV NS5B protein are described below. Follows, are details of the RNA-dependent RNA polymerase assays used to test the compounds.
The cDNA encoding the entire NS5B protein of HCV-Bk strain, genotype 1b, was amplified by PCR using the primers NS5Nhe5′ (5′-[…]-3′) (SEQ ID NO: 1) and XhoNS53′ (5′-[…]-3′) (SEQ ID NO: 2) and the plasmid pCD 3.8-9.4 as template (Tomei et al, 1993). NS5Nhe5′ and XhoNS53′ contain two NheI and XhoI sites (underlined sequences), respectively, at their 5′ end. The amplified DNA fragment was cloned in the bacterial expression plasmid pET-21b (Novagen) between the restriction sites NheI and XhoI, to generate the plasmid pET/NS5B. This plasmid was later used as template to […] the NS5B coding region, using the primers NS5B-H9 (5′-[…]-3′) (SEQ ID NO: 3) and NS5B-R4 (5′-[…]-3′) (SEQ ID NO: 4). NS5B-H9 spans a region of 15 nucleotides in the plasmid pET-21b followed by the translation initiation codon (ATG) and […] corresponding to the 5′ end of the NS5B coding region (nt. 7590-7607 in the HCV sequence with the accession number M58335) . NS5B-R4 contains two BamHI sites (underlined) followed by 18 nucleotides corresponding to the region around the stop codon in the HCV genome (nt. 9365-9347). The amplified sequence, of 1.8 kb, was digested with NheI and BamHI and ligated to a predigested pBlueBacII plasmid (Invitrogen) . The resulting recombinant plasmid was designated pBac/NS5B. Sf9 cells were co-transfected with 3 μg of pBac/NS5B, together with 1 μg of linearized baculovirus DNA (Invitrogen), as described in the manufacturer's protocol. Following two rounds of plaque purification, an NS5B-recombinant baculovirus, BacNS5B, was isolated. The presence of the recombinant NS5B protein was determined by western blot analysis (Harlow and Lane, 1988) of BacNS5B-infected Sf9 cells, using a rabbit polyclonal antiserum (anti-NS5B) raised against a His-tagged version of the NS5B protein expressed in E. coil. Infections of Sf9 cells with this plaque purified virus were performed in one-liter spinner flasks at a cell density of 1.2×10^6 cells/ml and a multiplicity of infection of 5.
Sf9 cells were infected as described above. Sixty hours post-infection, cells were harvested then washed twice with phosphate buffer saline (PBS). Total proteins were solubilized as described in Lohmann et al. (1997) with some modifications. In brief, proteins were extracted in three steps, S1, S2, S3, using lysis buffers (LB) I, LB II and LB III (Lohmann et al, 1997). The composition of LBII was modified to contain 0.1% triton X-100 and 150 mM NaCl to reduce the amount of solubilized NS5B protein at this step. In addition, sonication of cell extracts was avoided throughout the protocol to preserve the integrity of the protein structure.
Soluble NS5B protein in the S3 fraction was diluted to lower the NaCl concentration to 300 mM, then it incubated batchwise with DEAE sepharose beads (Amersham-Pharmacia) for 2 hrs at 4° C., as described by Behrens et al. (1996). Unbound material was cleared by centrifugation for 15 min at 4° C., at 25000 rpm using a SW41 rotor (Beckman). The supernatant was further diluted to lower the NaCl concentration to 200 mM and subsequently loaded, with a flow rate of 1 ml/min, on a 5 ml HiTrap® heparin column (Amersham-Pharmacia) connected to an FPLC® system (Amersham-Pharmacia). Bound proteins were eluted in 1 ml fractions, using a continuous NaCl gradient of 0.2 to 1 M, over a 25 ml volume. […]

HCV RNA-dependent RNA polymerase (NS5B protein), sequence (P26663 2420-3010 limits assumed): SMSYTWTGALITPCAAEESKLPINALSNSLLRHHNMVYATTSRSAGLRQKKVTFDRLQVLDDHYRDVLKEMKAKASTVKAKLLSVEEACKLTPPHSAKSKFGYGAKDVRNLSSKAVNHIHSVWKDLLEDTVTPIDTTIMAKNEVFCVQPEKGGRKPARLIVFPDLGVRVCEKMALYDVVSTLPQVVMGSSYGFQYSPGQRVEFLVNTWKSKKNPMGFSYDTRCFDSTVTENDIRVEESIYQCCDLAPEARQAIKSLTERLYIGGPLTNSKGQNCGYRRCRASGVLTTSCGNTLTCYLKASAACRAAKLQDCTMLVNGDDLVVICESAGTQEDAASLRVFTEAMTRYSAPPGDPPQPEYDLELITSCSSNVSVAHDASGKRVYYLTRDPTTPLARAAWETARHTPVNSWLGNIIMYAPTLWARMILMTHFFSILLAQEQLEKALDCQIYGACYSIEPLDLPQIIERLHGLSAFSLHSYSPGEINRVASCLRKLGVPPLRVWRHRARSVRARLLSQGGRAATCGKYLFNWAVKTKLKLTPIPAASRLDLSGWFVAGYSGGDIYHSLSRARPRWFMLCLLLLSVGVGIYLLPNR

`CC(C)N(C(=O)c1ccc(Cl)cc1Cl)c1nc(-c2ccccc2)sc1C(=O)O` [Compound #3, 4-[(2,4-Dichloro-benzoyl)-isopropyl-amino]-2-phenyl-thiazole-5-carboxylic acid] and `CN(C(=O)c1ccc(Cl)cc1Cl)c1nc(-c2ccccc2)sc1C(=O)O` [Compound #2, 4-[(2,4-Dichloro-benzoyl)-methyl-amino]-2-phenyl-thiazole-5-carboxylic acid] cannot be ordered by IC50: < 5 µM for the first, < 5 µM for the second.

`CN(C(=O)c1ccc(Cl)cc1)c1nc(-c2ccccc2)sc1C(=O)O` [Compound #14, 4-[(4-Chloro-benzoyl)-methyl-amino]-2-phenyl-thiazole-5-carboxylic acid] and `Cc1ccc(C(=O)N(C)c2nc(-c3ccccc3)sc2C(=O)O)cc1` [Compound #1, 4-[Methyl-(4-methyl-benzoyl)-amino]-2-phenyl-thiazole-5-carboxylic acid] cannot be ordered by IC50: < 5 µM for the first, < 5 µM for the second.

`Cc1cccc(C(=O)Nc2nc(-c3ccccc3)sc2C(=O)O)c1` [Compound #12, 4-(3-Methyl-benzoylamino)-2-phenyl-thiazole-5-carboxylic acid] and `Cc1ccc(C(=O)Nc2nc(-c3ccccc3)sc2C(=O)O)c(C)c1` [Compound #8, 4-(2,4-Dimethyl-benzoylamino)-2-phenyl-thiazole-5-carboxylic acid] cannot be ordered by IC50: > 20 µM for the first, > 20 µM for the second.

`O=C(Nc1nc(-c2ccccc2)sc1C(=O)O)c1ccc(Cl)cc1` [Compound #15] and `O=C(Nc1nc(-c2ccccc2)sc1C(=O)O)c1ccc(Cl)cc1Cl` [Compound #11, 4-(2,4-Dichloro-benzoylamino)-2-phenyl-thiazole-5-carboxylic acid] fall in the same range of IC50: 5 to 20 µM for the first, 5 to 20 µM for the second.

`Cc1ccc(S(=O)(=O)Nc2nc(-c3ccccc3)sc2C(=O)O)c(C)c1` [Compound #9, 4-(2,4-Dimethyl-benzenesulfonylamino)-2-phenyl-thiazole-5-carboxylic acid] and `Cc1ccccc1S(=O)(=O)Nc1nc(-c2ccccc2)sc1C(=O)O` [Compound #5, 2-Phenyl-4-(toluene-2-sulfonylamino)-thiazole-5-carboxylic acid] fall in the same range of IC50: 5 to 20 µM for the first, 5 to 20 µM for the second.

Compared with `CCN(C(=O)c1ccc(Cl)cc1Cl)c1nc(-c2ccccc2)sc1C(=O)O` [Compound #4, 4-[(2,4-Dichloro-benzoyl)-ethyl-amino]-2-phenyl-thiazole-5-carboxylic acid], `CN(C(=O)c1ccccc1Cl)c1nc(-c2ccccc2)sc1C(=O)O` [Compound #13, 4-[(2-Chloro-benzoyl)-methyl-amino]-2-phenyl-thiazole-5-carboxylic acid] is higher in IC50: < 5 µM for the first, 5 to 20 µM for the second.

First: Cc1ccc(S(=O)(=O)Nc2nc(-c3ccccc3)sc2C(=O)O)cc1 [Compound #10, 2-Phenyl-4-(toluene-4-sulfonylamino)-thiazole-5-carboxylic acid]
Second: Cc1ccc(C(=O)N(c2nc(-c3ccccc3)sc2C(=O)O)C(C)C)cc1 [Compound #6, 4-[Isopropyl-(4-methyl-benzoyl)-amino]-2-phenyl-thiazole-5-carboxylic acid]
The IC50 of the first is higher: > 20 µM for the first, < 5 µM for the second. The second is the more potent here.

Compared with `O=C(Nc1nc(-c2ccccc2)sc1C(=O)O)c1ccc(Cl)cc1` [Compound #7, 4-(4-Chloro-benzoylamino)-2-phenyl-thiazole-5-carboxylic acid], `Cc1ccc(C(=O)N(C)c2nc(N3CCOCC3)sc2C(=O)O)c(C)c1` [Compound #16, 4-[(2,4-DIMETHYL-BENZOYL)-METHYL-AMINO]-2-MORPHOLIN-4-YL-THIAZOLE-5-CARBOXYLIC ACID] is lower in IC50: > 20 µM for the first, 5 to 20 µM for the second. The second is the more potent here.
